In brackets after ≈: the same amount, converted by molar mass. Several values for one entry are separate records, joined by “and”; a condition that tells them apart may be missing. Equal entries are not always repeated. Where two headings read alike, the source gives them in different places.
Assays:
[1] = target: T1, stabilized FtsZ-GMPCPP polymers (BsFtsZ) (Bacillus subtilis, UniProt P17865); test: Competition assay: displacement of probe (S)-2 from stabilized FtsZ-GMPCPP polymers; assay type: binding; details: for Kd: (S)-2 3 μM, 8 μM binding sites
T1 construct: made in house
Description: (§1) FtsZ (10–15 μM) was assembled in HEPES buffer, 10 mM MgCl2, 50 μM GMPCPP at 25 °C for 10 min, and then 0.15% (v/v) glutaraldehyde[36] (distilled grade for microscopy, TAAB Laboratories, U.K.) was added to the solution that was incubated at 25 °C for 10 min more. (This was the minimal glutaraldehyde concentration determined to stabilize FtsZ polymers specifically binding probe 1.) The remains of the cross-linking agent were quenched by adding 60 mM NaBH4, the sample was incubated on ice for 10 min and degassed.[36] Cross-linked polymers were centrifuged for 10 min at 8200g (5000 rpm) and 4 °C in 15 mL Falcon tubes employing a Rotina 380R (Hettich) centrifuge, the supernatant was removed and the pellet was resuspended in the same volume of HEPES buffer, 10 mM MgCl2, containing 5 μM GMPCPP. Fixed FtsZ polymers were active in binding assays after more than 2 days at 4 °C; they could also be frozen in liquid nitrogen with a small loss of binding capacity. […] Cross-linked polymers of SaFtsZ were similarly prepared.
(§2) Competition assays were performed by measuring, through the decrease in fluorescence anisotropy, the displacement of the fluorescent probes from stabilized FtsZ polymers. Increasing concentrations of competing ligands were added to the mixtures of cross-linked FtsZ polymers (10–15 μM) with probe 1 (3 μM), 7–8 μM FtsZ polymers with probe (S)-2 (3 μM), or 2–3 μM FtsZ polymers with (R)-5 (3 μM). HEPES buffer with 10 mM MgCl2 and 0.1 mM GMPCPP was employed, with a final volume of 0.5 mL, and the anisotropy measured at 25 °C. Under these conditions, the initial fraction of the probe bound was between 0.4 and 0.5. The fraction of the probe bound (Vb) was calculated [drawing 1] where rfree and rmax are the anisotropy values of the free and bound probes, respectively, and R is the ratio between the fluorescence intensities of the bound and free probe (Table S1). The binding data were plotted against the competing ligand concentration and fitted by competition equilibrium of the ligand and the probe for the same binding site. The resulting system of equations[50] was numerically solved using the Equigra v. 5.0 program,[33] which provided the best-fitted value of the competitor binding constant.

[2] = target: T2, stabilized FtsZ-GMPCPP polymers (Bacillus subtilis, UniProt P17865); test: Fluorescence anisotropy screen with probe (S)-2 at two compound concentrations; assay type: binding; details: probe (S)-2 3 μM, compound 20 and 200 μM
T2 construct: made in house
Description: Once the fluorescence method for ligand binding into the interdomain cleft was set up, we evaluated its potential to screen for FtsZ allosteric inhibitors. Complementary to this screen, cytological profiling tests of the identified binders allow ascertaining their ability to target FtsZ in bacterial cells. Fluorescence anisotropy measurements of probe (S)-2 at two concentrations of each tested compound (20 and 200 μM) were acquired; the solubility range of positively testing compounds was determined spectrophotometrically. […] The promiscuous inhibitors resveratrol,[40] plumbagin,[41] and tiplaxtinin[42] […] It should be noticed that aggregating compounds may sequester the protein or the probe or may scatter highly polarized light, potentially interfering with the fluorescence anisotropy measurements. Colored and fluorescent compounds can also interfere. Compounds initially testing positive in the anisotropy screen should thus be checked for any unexpected changes of the total fluorescence intensity in the same samples, as well as for any artefactual effects on replicates omitting FtsZ.
(§3) Figure 4 Fluorescence anisotropy screen for FtsZ allosteric inhibitors combined with cell-based methods. (A) Screen for FtsZ inhibitors employing the fluorescence anisotropy of probe (S)-2 (3 μM) and stabilized FtsZ-GMPCPP polymers (8 μM binding sites). The anisotropy values of the partially bound probe (void black circles), the free probe (void gray circles), and the values with two concentrations of each compound, 20 μM (gray circles) and 200 μM (black circles) are shown. Control values with the corresponding concentrations of dimethyl sulfoxide (DMSO) vehicle (2% void and gray circles; 4%, black circle) are also shown. (B) Chemical structures of synthetic ligands 6–26. (C) Effects of low-affinity inhibitors 6, 7, and 9 on B. subtilis 168 cell division. Raw data plots (n ≥ 30) are shown with the mean values marked (statistics in Table S2). The cells were incubated for 3 h with each compound, and cell lengths were measured. (D) Representative phase-contrast images of cells after 3 h with 7 or 9 (0.75 mM each). (E) Cellular localization of FtsZ-GFP in B. subtilis SU570 following growth for 1.5 h in the absence (inset) and presence of 7 (0.2 mM). Bars, 10 μm.
as §2

[3] = Solubility in HEPES buffer with 2% DMSO, spectrophotometric; assay type: physicochemical; details: HEPES buffer containing 2% DMSO, 25 °C, aqueous buffer, kinetic from dmso stock; HEPES buffer pH 6.8 containing 2% DMSO
Description: 3.2. Solubility of Compounds. Stock solutions of compounds were prepared in
DMSO (spectroscopic grade, Merck) a nd stored at -20 °C. Compound solubility in 50
mM HEPES-KOH, 50 mM KCl, 1 mM EDTA, pH 6.8 (HEPES buffer) containing 2%
DMSO was determined spectrophotometrically, monitoring the linear correlation
between the absorbance and the compound concentration and the absence of light
scattering. The solutions were optionally centrifuged at 100000 rpm for 20 min at 25 °C
in a TLA100 rotor with a Beckman Optima Max -XP ultracentrifuge.

B. subtilis 168 = test: Cell length of B. subtilis 168 incubated with FtsZ inhibitors; assay type: cell-based, Bacillus subtilis; design: unit not given here; details: B. subtilis 168, 3 h, mean and standard error, n ≥ 30
Description: as §3, with “The anisotropy values of the partially bound probe (void black circles), the free probe (void gray circles), and the values with two concentrations of each compound, 20 μM (gray circles) and 200 μM (black circles) are shown.” left out, “(B) Chemical structures of synthetic ligands 6–26. (C) Effects of low-affinity inhibitors 6, 7, and 9 on B. subtilis 168 cell division.” left out
B. subtilis 168 and Staphylococcus spp. were grown in cation adjusted Mueller–Hinton broth (CAMHB; Becton, Dickinson and Company) at 37 °C. B. subtilis SU570 were grown in the same medium at 30 °C. In all cases, the cells were grown to an absorbance of 0.1–0.2 at 600 nm and then incubated either with the compounds or DMSO vehicle. Microscopy assays and cell measurement were performed as previously described.[31] MIC values were determined by a broth macrodilution method.[51] […] To construct a S. aureus strain expressing FtsZ-mCherry, the plasmid pCN-ftsZmch[9] was electroporated into RN4220 and 0.1 μM cadmium chloride (Sigma-Aldrich) was used to induce the expression of the construct under the control of the Pcad promoter. […]

B. subtilis [4] = test: Minimal division inhibitory concentration and cell division phenotype, B. subtilis; assay type: cell-based, Bacillus subtilis; details: for minimal effective concentration: Bacillus subtilis, read-out: MDC B. subtilis
Description: (§4) B. subtilis 168 and Staphylococcus spp. were grown in cation adjusted Mueller–Hinton broth (CAMHB; Becton, Dickinson and Company) at 37 °C. B. subtilis SU570 were grown in the same medium at 30 °C. In all cases, the cells were grown to an absorbance of 0.1–0.2 at 600 nm and then incubated either with the compounds or DMSO vehicle. Microscopy assays and cell measurement were performed as previously described.[31] MIC values were determined by a broth macrodilution method.[51] MBC values were determined as the lowest concentration of inhibitor at which there was a 99.9% reduction in colony-forming units/mL compared to the inoculum. To construct a S. aureus strain expressing FtsZ-mCherry, the plasmid pCN-ftsZmch[9] was electroporated into RN4220 and 0.1 μM cadmium chloride (Sigma-Aldrich) was used to induce the expression of the construct under the control of the Pcad promoter.

B. subtilis [5] = test: Minimal growth inhibitory concentration (broth macrodilution), B. subtilis; assay type: cell-based, Bacillus subtilis; details: Bacillus subtilis, read-out: MIC B. subtilis
Description: as §4

[6] = target: T3, stabilized polymers of FtsZ from B. subtilis (Bacillus subtilis, UniProt P17865); test: Competition assay: displacement of probe (R)-5 from stabilized BsFtsZ-GMPCPP polymers; assay type: binding; details: stabilized polymers of FtsZ from B. subtilis, probe (R)-5, mean ± SEM
T3 construct: made in house
Description: as §1, §2

S. aureus Mu50 [7] = test: Minimal growth inhibitory concentration (broth macrodilution), S. aureus Mu50; assay type: cell-based, Staphylococcus aureus; details: Staphylococcus aureus, MU50, read-out: MIC S. aureus Mu50
Description: as §4

S. aureus Mu50 [8] = test: Minimal division inhibitory concentration, S. aureus Mu50; assay type: cell-based; details: Staphylococcus aureus, MU50, read-out: MDC S. aureus Mu50
Description: as §4

T1 sequence (P17865 whole entry): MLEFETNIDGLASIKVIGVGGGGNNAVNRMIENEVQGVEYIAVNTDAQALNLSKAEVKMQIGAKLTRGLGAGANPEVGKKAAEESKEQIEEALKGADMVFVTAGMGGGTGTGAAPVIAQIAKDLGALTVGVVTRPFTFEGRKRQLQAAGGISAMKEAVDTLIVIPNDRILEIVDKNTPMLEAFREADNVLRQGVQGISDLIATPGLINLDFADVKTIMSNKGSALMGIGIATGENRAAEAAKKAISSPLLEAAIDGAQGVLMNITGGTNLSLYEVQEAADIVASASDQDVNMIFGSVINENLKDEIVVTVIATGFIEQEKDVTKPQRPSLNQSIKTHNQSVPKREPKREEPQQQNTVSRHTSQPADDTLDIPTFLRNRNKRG
T2 sequence (P17865 whole entry): as above
T3 sequence (P17865 whole entry): as above

## OCc1nc2cc(Cl)cnc2s1 [CTPM, 6-(chloro[1,3]thiazolo[5,4-b]pyridin-2-yl)methanol, reference compound]
[1]
  Kd: 1000 ± 100 µM

## NC(=O)c1cccc(NCc2cccc(Cl)c2)c1 [Compound 6]
[2]
  result of the anisotropy screen, in words: weak binders
[3]
  solubility: ≥ 100 µM
[1]
  Kd: 233 µM and ~200 µM
B. subtilis 168; 0.5 mM
  length: 5.9 ± 0.3
B. subtilis 168; 0.75 mM
  length: 8.0 ± 0.2

## CN(Cc1cccc(Cl)c1)c1cccc(C(N)=O)c1 [Compound 7]
[2]
  result of the anisotropy screen, in words: weak binders
[3]
  solubility: ≥ 100 µM
B. subtilis [4]; 3-methoxybenzamide value from ref 44
  fold lower concentration inhibiting B. subtilis division than 3-methoxybenzamide: ~20 fold
[1]
  Kd: 159 µM and ~200 µM
B. subtilis 168; 0.5 mM
  length: 8.5 ± 0.3
B. subtilis 168; 0.75 mM
  length: 24.7 ±0.8

## NC(=O)c1ccc(NCc2cccc(Cl)c2)cc1 [Compound 9]
[2]
  result of the anisotropy screen, in words: weak binders
[3]
  solubility: ≥ 100 µM
[1]
  Kd: 196 µM and ~200 µM
B. subtilis 168; 0.5 mM
  length: 6.1 ± 0.3
B. subtilis 168; 0.75 mM
  length: 11.6 ±0.4

## CN(Cc1cccc(Cl)c1)c1ccc(C(N)=O)cc1 [Compound 10]
[2]
  result of the anisotropy screen, in words: weak binders
[3]
  solubility: ≥ 100 µM
[1]
  Kd: 250 µM and ~200 µM

## NC(=O)c1c(F)ccc(OCCc2cccc(C(F)(F)F)c2)c1F [Compound 22]
B. subtilis [5]
  MIC: 50 µM (≈ 17.3 µg/mL)
[3]
  solubility: > 100 µM
B. subtilis [4]
  minimal effective concentration: 15 µM
[6]; read-out: KD
  Kd: 5.9 ± 0.4 µM
S. aureus Mu50 [7]
  MIC: 200 µM (≈ 69.1 µg/mL)
S. aureus Mu50 [8]
  minimal effective concentration: 100 µM

## NC(=O)c1c(F)ccc(OCCCc2cccc(C(F)(F)F)c2)c1F [Compound 23]
B. subtilis [5]
  MIC: 10 µM (≈ 3.59 µg/mL)
[3]
  solubility: 50 µM (≈ 18 µg/mL)
B. subtilis [4]
  minimal effective concentration: 5 µM
[6]; read-out: KD
  Kd: 1.5 ± 0.1 µM
S. aureus Mu50 [7]
  MIC: 50 µM (≈ 18 µg/mL)
S. aureus Mu50 [8]
  minimal effective concentration: 25 µM

## CN(C)CCC(Oc1ccc(F)c(C(N)=O)c1F)c1cccc(C(F)(F)F)c1 (stereo not shown) [Compound 24]
B. subtilis [5]
  MIC: > 100 µM
[3]
  solubility: > 1000 µM
B. subtilis [4]
  minimal effective concentration: > 50 µM
[6]; KD
  Kd: 145 ± 10 µM
S. aureus Mu50 [7]
  MIC: > 100 µM
S. aureus Mu50 [8]
  minimal effective concentration: > 100 µM

## COc1ccc(F)c(C(N)=O)c1F [DFMBA, 2,6-difluoro-3-methoxybenzamide, reference compound]
[1]
  Kd: 670 ± 50 µM

## Nc1nc2c(ncn2[C@@H]2O[C@H](COP(=O)(O)OP(=O)(O)O)[C@@H](O)[C@H]2O)c(=O)[nH]1 [GDP, guanosine diphosphate, reference compound]
[1]; negative control
  displacement of (S)-2 from its binding site, in words: does not displace

## O=C(O)CCN(Cc1ccccc1)Cc1cccc(Sc2ccccc2)c1 [PC170942]
[2]
  result of the anisotropy screen, in words: no evidence of binding

## O=C(Oc1cc(OC(=O)c2cc(O)cc(O)c2)c2ccccc2c1)c1ccc(O)c(O)c1 [UCM44]
[2]
  result of the anisotropy screen, in words: marginal inhibitory effect

## CC1=CC(=O)c2c(O)cccc2C1=O [plumbagin, reference compound]
[2]
  result of the anisotropy screen, in words: weakly modified anisotropy and total fluorescence intensity
B. subtilis [4]
  inhibition of B. subtilis cell division, in words: none of them impaired B. subtilis cell division

## Oc1ccc(/C=C/c2cc(O)cc(O)c2)cc1 [resveratrol, reference compound]
[2]
  result of the anisotropy screen, in words: weakly modified anisotropy and total fluorescence intensity
B. subtilis [4]
  inhibition of B. subtilis cell division, in words: none of them impaired B. subtilis cell division

## O=C(O)C(=O)c1cn(Cc2ccccc2)c2ccc(-c3ccc(OC(F)(F)F)cc3)cc12 [tiplaxtinin, reference compound]
[2]
  result of the anisotropy screen, in words: weakly modified anisotropy and total fluorescence intensity
B. subtilis [4]
  inhibition of B. subtilis cell division, in words: none of them impaired B. subtilis cell division

## CCN(CC)CCNc1nc(/C=C/c2ccc(Cl)cc2)nc2cc3ccccc3cc12 [zantrin Z3]
[2]
  result of the anisotropy screen, in words: no evidence of binding
